Laboratory results: patent US20240368566A1, “PYK2-DERIVED PEPTIDES FOR INHIBITING INVADOPODIA-MEDIATED CANCER METASTASIS” (BAR-ILAN UNIVERSITY, priority 2023, published 2024)

What was measured:
Type in all cases: cell-based, human
MDA-MB-231 cells [1] = experiment: Barbed end formation assay; conditions: EGF stimulation; all concentrations
Protocol: The barbed end assay was performed using biotin-conjugated actin as described in Genna et al., 2018 (supra). In brief, 24 h before each experiment, cells were plated on fibronectin/gelatin unlabeled matrix in the presence of Pyk2-PRR or control peptides at 0.1, 1, or 5 μM concentration and allowed to attach for 8 h. Cells were starved for 16 h in the presence of the peptides and then stimulated with 2.5 nM EGF and permeabilized with a permeabilization buffer (20 mM Hepes, pH 7.5, 138 mM KCl, 4 mM MgCl2, 3 mM EGTA, 0.2 mg/ml saponin, 1 mM ATP, and 1% BSA) containing 0.4 μM biotin-conjugated muscle actin (AB07) (Cytoskeleton Inc., Denver, CO, USA) for 1 min at 37° C. Cells were fixed in 3.7% paraformaldehyde for 5 min, blocked in PBS containing 1% FBS, 1% BSA, and 3 μM un-labeled phalloidin (Molecular Probes, P3457), then labeled with FITC anti-biotin (200-092-211) (Jackson ImmunoResearch Laboratories, West Grove, PA, USA) to visualize barbed ends, and with rhodamine-phalloidin (R415) (Molecular Probes, Eugene, OR, USA) and Arp2 to identify regions of cells rich in invadopodia. The barbed end intensity at invadopodia-rich regions was quantified by measuring mgv at invadopodia-rich areas minus mgv of the background. Data were normalized to the control condition for each experiment.

MDA-MB-231 cells [2] = experiment: 2D single-cell random migration assay; conditions: all concentrations; 12 hours; compared to control peptide; data not shown
Protocol: The 2D single-cell random migration assay was performed as previously described in Genna et al. Pyk2 and FAK differentially regulate invadopodia formation and function in breast cancer cells. J Cell Biol 2018; 217: 375-395. In brief, 6-well microtiter plates were coated with 10 μg/ml fibronectin and blocked with 1% denatured BSA. Peptide pre-treated cells were plated at 20,000 cells/well in DMEM/10% FBS containing peptides and allowed to adhere for 12-16 h. Plates were placed in a 37° C. heated chamber, and images were collected using the IncuCyte® Zoom platform (Essen Bioscience, Ann Arbor, MI, USA; 20×, NA 0.60, air objective). Phase images were collected every one hour for a total of 12 h using the IncuCyte® acquisition software. Trajectory plots, accumulated distance (total cell path length), Euclidean distance (the shortest distance between the starting point and endpoint of migration), and velocity were calculated using the chemotaxis and migration tool (ibidi GMBH, Grafelfing, Germany).

[3] = tested on: interaction between Pyk2 and cortactin in invadopodia; experiment: Acceptor photobleaching FRET assay; conditions: 0.1, 1, 5 μM peptide; mature matrix-degrading invadopodia
Protocol: Acceptor photobleaching experiments were performed as described in Genna et al., 2018 (supra). In brief, cortactin-TagRFP MDA-MB-231 cells were plated on Alexa 405 gelatin in a medium containing Pyk2-PRR or scrambled control peptides at 0.1, 1, and 5 μM concentration, fixed, and immunostained with pY402-Pyk2/Alexa Fluor 488-goat anti-rabbit (donor) and cortactin/Alexa Fluor 555-goat anti-mouse (acceptor). As a control, cells were stained with Tks5/Alexa Fluor 488-goat anti-rabbit (donor) and cortactin/Alexa Fluor 555-goat anti-mouse (acceptor). Co-localization of cortactin with degradation holes in Alexa 405-labeled gelatin was used to identify mature degrading invadopodia. For all FRET experiments, cells were imaged in PBS at room temperature on a laser-scanning inverted confocal microscope (Zeiss LSM780; 60×, NA 1.4, oil objective). A region of interest surrounding invadopodia was bleached using 100% 561-nm laser power (acceptor channel), and images were acquired in both the 488 nm and the 561 nm channels before and after bleaching. FRET efficiency was calculated as the E=1−(donor pre/donor post) in background-subtracted images and was corrected for fluctuations in laser power and donor bleaching in ImageJ.

cortactin tyrosine Y421 = experiment: Immunofluorescence analysis of cortactin tyrosine phosphorylation at invadopodium precursors; conditions: EGF stimulation 3 min; all concentrations (0.1, 1, 5 μM)
Protocol: Twenty-four hours before each experiment, cells were plated on fibronectin/gelatin unlabeled matrix in the presence of a Pyk2-PRR or control peptides at 0.1, 1, and 5 μM concentration and allowed to attach for eight hours. Cells were then starved in DMEM/0.5% FBS for 16 h in the presence of peptides and stimulated with 2.5 nM EGF for 3 min or left un-stimulated (0 min EGF). Cells were fixed and stained with mouse phospho-specific cortactin antibody (pY421). To image invadopodia Z-plane, focus was on the ventral surface of the cell where the leading edge containing cortactin is focused. The pixels corresponding to invadopodia dots were then analyzed, not the whole cell. The intensity (mean grey value (mgv) minus background) of cortactin-TagRFP and pY421-cortactin at invadopodium precursors was quantified. The pY421-cortactin/cortactin-TagRFP ratio was calculated as a measure of tyrosine-phosphorylated cortactin at cortactin-rich puncta. Data were normalized to resting cells (0 min EGF) and presented as the relative fold change in cortactin tyrosine phosphorylation.

MDA-MB-231 cells [4] = experiment: Invadopodium precursor formation assay; conditions: 4 h, 0.1, 1 or 5 μM peptide
Protocol: The invadopodium precursor formation assay was performed as described in Genna et al., 2018 (supra). Briefly, gelatin was conjugated to Alexa 405 dye (Thermo Fisher Scientific). MatTek dishes were treated with 1 N HCl and coated with 50 μg/ml poly-L-lysine. A 0.2% gelatin solution was prepared in PBS, and a 1:20 mixture of Alexa 405-labeled gelatin/unlabeled gelatin was warmed to 37° C. before addition to the poly-L-lysine coated plates. Gelatin was cross-linked with 0.01% glutaraldehyde followed by quenching with 5 mg/ml sodium borohydride. 125,000 MDA-MB-231 cells were plated on Alexa 405-labeled gelatin plates in the presence of 0.1, 1, or 5 μM of Pyk2-PRR peptides or scrambled control for 4 h. At the end of incubation, cells were fixed in 3.7% paraformaldehyde, permeabilized with 0.1% Triton X-100, blocked with 1% FBS, 1% BSA in PBS, and labeled with anti-Tks5 and anti-cortactin. Images were acquired using an inverted fluorescent microscope (Leica AF6000; 63×, NA 1.4, oil objective, Leica LAS AF acquisition software) (Wetzlar, Germany) equipped with an ORCA-Flash 4.0 V2 digital CMOS camera (Hamamatsu Photonics, Shizuoka, Japan).

## C[C@H](NC(=O)[C@@H](N)[C@@H](C)O)C(=O)N[C@@H](Cc1ccccc1)C(=O)N[C@@H](CCC(N)=O)C(=O)N[C@@H](CCC(=O)O)C(=O)N1CCC[C@H]1C(=O)N1CCC[C@H]1C(=O)N1CCC[C@H]1C(=O)N[C@@H](CCCCN)C(=O)N1CCC[C@H]1C(=O)N[C@@H](CO)C(=O)N[C@@H](CCCNC(=N)N)C(=O)N1CCC[C@H]1C(=O)N[C@@H](CCCCN)C(=O)N[C@@H](Cc1ccc(O)cc1)C(=O)N[C@@H](CCCNC(=N)N)C(=O)N1CCC[C@H]1C(=O)N1CCC[C@H]1C(=O)N1CCC[C@H]1C(=O)O [Pyk2-PRR2, TAFQEPPPKPSRPKYRPPP]
MDA-MB-231 cells [1]
  generation of free actin barbed ends at invadopodia: completely disrupted
MDA-MB-231 cells [2]
  2D motility (accumulated and Euclidean distances, velocity): reduced 2D motility
[3]
  interaction between Pyk2 and cortactin in invadopodia (FRET): significantly inhibited
Cortactin tyrosine Y421
  cortactin Y421 phosphorylation: completely abolished
MDA-MB-231 cells [4]; co-localization with degradation regions
  mature, matrix-degrading invadopodia: significant decrease
MDA-MB-231 cells [4]; cortactin and Tks5 co-localization
  immature invadopodium precursors: significant increase
